{"source": "ChEMBL document CHEMBL1201862", "about": "“PubChem BioAssay data set” (2004)", "test_in_all_cases": "DTP human tumour cell line panel, 48 h", "key": {"LXFL 529": {"test_system": "LXFL 529"}, "M19-MEL": {"test_system": "M19-MEL"}, "BT-549": {"test_system": "BT-549"}, "DU-145": {"test_system": "DU-145"}, "MCF7": {"test_system": "MCF7"}, "T47D": {"test_system": "T47D"}, "HOP-18": {"test_system": "HOP-18"}, "SR": {"test_system": "SR"}}, "note": "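These data come from cells grown in 96-well plates and exposed to compound for 48 hours at five concentrations. The concentration for 50% growth inhibition is given as GI50.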 The source made the active and inactive calls. Cut-off read from the data, not from the text of the source: active = GI50 up to about 1.1 µM and inactive = higher."}
{"smiles": "C=C1COC(/C=C(\\C)CC/C=C(\\C)CCl)C1", "note": "(configuration not stated)", "values": [{"measurement": "GI50", "setting": "LXFL 529", "value": "> 100 µM (inactive)"}, {"measurement": "GI50", "setting": "M19-MEL", "value": "> 100 µM (inactive)"}]}
{"smiles": "Cc1cnc2nc(-c3ccc4ccccc4c3)cc(O)c2c1", "values": [{"measurement": "GI50", "setting": "BT-549", "value": "> 100 µM (inactive)"}, {"measurement": "GI50", "setting": "DU-145", "value": "0.408 µM (active)"}, {"measurement": "GI50", "setting": "MCF7", "value": "0.561 µM (active)"}, {"measurement": "GI50", "setting": "T47D", "value": "> 100 µM (inactive)"}]}
{"smiles": "O=P1(O)c2ccccc2CS(=O)(=O)Cc2ccccc21", "values": [{"measurement": "GI50", "setting": "BT-549", "value": "> 100 µM (inactive)"}, {"measurement": "GI50", "setting": "DU-145", "value": "> 100 µM (inactive)"}, {"measurement": "GI50", "setting": "MCF7", "value": "> 100 µM (inactive)"}, {"measurement": "GI50", "setting": "T47D", "value": "> 100 µM (inactive)"}]}
{"smiles": "COc1ccc(OCC(C)(C)O)cc1", "values": [{"measurement": "GI50", "setting": "HOP-18", "value": "> 100 µM (inactive)"}, {"measurement": "GI50", "setting": "MCF7", "value": "> 45.3 µM (inactive)"}]}
{"smiles": "COC(=O)Cc1c([C@H]2[C@H](CC(=O)OC)c3ccccc3N2C(=O)C(F)(F)F)[nH]c2ccccc12", "values": [{"measurement": "GI50", "setting": "BT-549", "value": "27.6 µM (inactive)"}, {"measurement": "GI50", "setting": "DU-145", "value": "63 µM (inactive)"}, {"measurement": "GI50", "setting": "MCF7", "value": "26 µM (inactive)"}, {"measurement": "GI50", "setting": "SR", "value": "14.7 µM (inactive)"}, {"measurement": "GI50", "setting": "T47D", "value": "36.5 µM (inactive)"}]}
{"smiles": "COc1ccc(C(C2C(=O)N(C)C(=O)N(C)C2=O)C(F)(F)C(=O)N(C)C)cc1", "note": "(configuration not stated)", "values": [{"measurement": "GI50", "setting": "BT-549", "value": "> 100 µM (inactive)"}, {"measurement": "GI50", "setting": "DU-145", "value": "> 100 µM (inactive)"}, {"measurement": "GI50", "setting": "MCF7", "value": "> 100 µM (inactive)"}, {"measurement": "GI50", "setting": "T47D", "value": "> 100 µM (inactive)"}]}
{"smiles": "BrP(NC1CCCCCC1)(c1ccccc1)(c1ccccc1)c1ccccc1", "values": [{"measurement": "GI50", "setting": "BT-549", "value": "3.26 µM (inactive)"}, {"measurement": "GI50", "setting": "DU-145", "value": "8.26 µM (inactive)"}, {"measurement": "GI50", "setting": "MCF7", "value": "2.5 µM (inactive)"}, {"measurement": "GI50", "setting": "SR", "value": "3.88 µM (inactive)"}, {"measurement": "GI50", "setting": "T47D", "value": "1.93 µM (inactive)"}]}
{"smiles": "C=C1CCC2[C@@H](CCC3[C@]2(C)CCC[C@]3(C)C(=O)OC)C1CCO", "note": "(some centres not stated)", "values": [{"measurement": "GI50", "setting": "HOP-18", "value": "16 µM (inactive)"}, {"measurement": "GI50", "setting": "LXFL 529", "value": "8.89 µM (inactive)"}, {"measurement": "GI50", "setting": "M19-MEL", "value": "15 µM (inactive)"}]}
{"smiles": "CC(C)Oc1cccc(N2C(n3ccnc3)=Nc3ccncc3S2(=O)=O)c1", "values": [{"measurement": "GI50", "setting": "BT-549", "value": "15.5 µM (inactive)"}, {"measurement": "GI50", "setting": "DU-145", "value": "12.2 µM (inactive)"}, {"measurement": "GI50", "setting": "MCF7", "value": "10.1 µM (inactive)"}, {"measurement": "GI50", "setting": "SR", "value": "3.78 µM (inactive)"}, {"measurement": "GI50", "setting": "T47D", "value": "13.1 µM (inactive)"}]}
{"smiles": "CCOC(=O)c1cn2c(n1)sc1cc([N+](=O)[O-])ccc12", "values": [{"measurement": "GI50", "setting": "BT-549", "value": "74.6 µM (inactive)"}, {"measurement": "GI50", "setting": "DU-145", "value": "> 100 µM (inactive)"}, {"measurement": "GI50", "setting": "MCF7", "value": "> 100 µM (inactive)"}, {"measurement": "GI50", "setting": "SR", "value": "> 100 µM (inactive)"}, {"measurement": "GI50", "setting": "T47D", "value": "> 100 µM (inactive)"}]}
{"smiles": "COc1ccc2c(c1)OCCC1=C2SCC2(C)CCN=C12", "note": "(configuration not stated)", "values": [{"measurement": "GI50", "setting": "HOP-18", "value": "48.3 µM (inactive)"}, {"measurement": "GI50", "setting": "LXFL 529", "value": "> 100 µM (inactive)"}]}
{"smiles": "COc1ccc(N(C)C(=O)N(C)c2ccc([N+](=O)[O-])cc2)cc1", "values": [{"measurement": "GI50", "setting": "BT-549", "value": "44.8 µM (inactive)"}, {"measurement": "GI50", "setting": "DU-145", "value": "90.6 µM (inactive)"}, {"measurement": "GI50", "setting": "MCF7", "value": "39.1 µM (inactive)"}, {"measurement": "GI50", "setting": "SR", "value": "19.5 µM (inactive)"}, {"measurement": "GI50", "setting": "T47D", "value": "66.4 µM (inactive)"}]}
{"smiles": "CCCCc1c2cnccc2c(CCCC)c2c1[nH]c1ccccc12", "values": [{"measurement": "GI50", "setting": "HOP-18", "value": "3.59 µM (inactive)"}, {"measurement": "GI50", "setting": "LXFL 529", "value": "11.4 µM (inactive)"}, {"measurement": "GI50", "setting": "M19-MEL", "value": "12.4 µM (inactive)"}]}
{"smiles": "Cc1nc2n(c1/C=C1/C(=O)Nc3cccc(Cl)c31)CCS2", "values": [{"measurement": "GI50", "setting": "BT-549", "value": "25.1 µM (inactive)"}, {"measurement": "GI50", "setting": "DU-145", "value": "48.1 µM (inactive)"}, {"measurement": "GI50", "setting": "MCF7", "value": "14.2 µM (inactive)"}, {"measurement": "GI50", "setting": "SR", "value": "> 100 µM (inactive)"}, {"measurement": "GI50", "setting": "T47D", "value": "15.1 µM (inactive)"}]}
{"smiles": "C=CC[N+]12CN3CN(CN(C3)C1)C2", "values": [{"measurement": "GI50", "setting": "BT-549", "value": "26.7 µM (inactive)"}, {"measurement": "GI50", "setting": "DU-145", "value": "21.1 µM (inactive)"}, {"measurement": "GI50", "setting": "MCF7", "value": "30.1 µM (inactive)"}, {"measurement": "GI50", "setting": "T47D", "value": "27 µM (inactive)"}]}
{"smiles": "C=C1Oc2nc3ccccc3c(=O)n2C1(C)C", "values": [{"measurement": "GI50", "setting": "HOP-18", "value": "> 100 µM (inactive)"}, {"measurement": "GI50", "setting": "LXFL 529", "value": "> 100 µM (inactive)"}, {"measurement": "GI50", "setting": "M19-MEL", "value": "> 100 µM (inactive)"}]}
{"smiles": "C=C1CC(C)(COc2ccc3c(C)c(C)c(=O)oc3c2C)OC1=O", "note": "(configuration not stated)", "values": [{"measurement": "GI50", "setting": "BT-549", "value": "1.5 µM (inactive)"}, {"measurement": "GI50", "setting": "DU-145", "value": "2.51 µM (inactive)"}, {"measurement": "GI50", "setting": "MCF7", "value": "1.29 µM (inactive)"}, {"measurement": "GI50", "setting": "SR", "value": "0.995 µM (active)"}, {"measurement": "GI50", "setting": "T47D", "value": "1.28 µM (inactive)"}]}
{"smiles": "O=C1/C(=C/c2ccc(Oc3ccccc3)cc2)N=C(c2ccccc2)N1c1ccc(S(=O)(=O)Nc2nccs2)cc1", "values": [{"measurement": "GI50", "setting": "DU-145", "value": "47 µM (inactive)"}, {"measurement": "GI50", "setting": "MCF7", "value": "14.3 µM (inactive)"}, {"measurement": "GI50", "setting": "SR", "value": "2.65 µM (inactive)"}, {"measurement": "GI50", "setting": "T47D", "value": "12.8 µM (inactive)"}]}
{"smiles": "CC(C)C(=O)/C=C/c1ccc(Br)cc1", "values": [{"measurement": "GI50", "setting": "LXFL 529", "value": "16.1 µM (inactive)"}, {"measurement": "GI50", "setting": "M19-MEL", "value": "15.4 µM (inactive)"}, {"measurement": "GI50", "setting": "SR", "value": "7.28 µM (inactive)"}]}
{"smiles": "CC(C)(C)OC(=O)NC(Cc1ccc(OCc2ccccc2)cc1)C(=O)NC(COCc1ccccc1)C(=O)Oc1c(Cl)c(Cl)c(Cl)c(Cl)c1Cl", "note": "(configuration not stated)", "values": [{"measurement": "GI50", "setting": "BT-549", "value": "20 µM (inactive)"}, {"measurement": "GI50", "setting": "DU-145", "value": "14.8 µM (inactive)"}, {"measurement": "GI50", "setting": "MCF7", "value": "22.4 µM (inactive)"}, {"measurement": "GI50", "setting": "SR", "value": "44.9 µM (inactive)"}, {"measurement": "GI50", "setting": "T47D", "value": "22.8 µM (inactive)"}]}
{"smiles": "CSC(=N)N1N=C2/C(=C/c3ccccc3)CCC[C@H]2[C@H]1c1ccccc1", "values": [{"measurement": "GI50", "setting": "HOP-18", "value": "1.07 µM (active)"}, {"measurement": "GI50", "setting": "LXFL 529", "value": "4.55 µM (inactive)"}, {"measurement": "GI50", "setting": "SR", "value": "1.85 µM (inactive)"}]}
{"smiles": "CCCc1cc(=O)oc2c3c(c4c(c12)OC(C)(C)CC4)O[C@@H](C)[C@H](C)[C@H]3O", "values": [{"measurement": "GI50", "setting": "BT-549", "value": "5.06 µM (inactive)"}, {"measurement": "GI50", "setting": "DU-145", "value": "17.8 µM (inactive)"}, {"measurement": "GI50", "setting": "MCF7", "value": "12.6 µM (inactive)"}, {"measurement": "GI50", "setting": "T47D", "value": "6.58 µM (inactive)"}]}
{"smiles": "CC(=O)/C=C1\\CC(=O)N(C)c2ccccc2N1", "values": [{"measurement": "GI50", "setting": "LXFL 529", "value": "> 100 µM (inactive)"}, {"measurement": "GI50", "setting": "M19-MEL", "value": "> 100 µM (inactive)"}, {"measurement": "GI50", "setting": "SR", "value": "> 100 µM (inactive)"}]}
{"smiles": "CCCOC1OC(CS(=O)(=O)O)C(O)C(O)C1O", "note": "(configuration not stated)", "values": [{"measurement": "GI50", "setting": "BT-549", "value": "> 100 µM (inactive)"}, {"measurement": "GI50", "setting": "DU-145", "value": "> 100 µM (inactive)"}, {"measurement": "GI50", "setting": "MCF7", "value": "> 100 µM (inactive)"}, {"measurement": "GI50", "setting": "SR", "value": "> 100 µM (inactive)"}, {"measurement": "GI50", "setting": "T47D", "value": "> 100 µM (inactive)"}]}
{"smiles": "S=C(Cc1ccc2c(c1)Sc1ccccc1O2)N1CCOCC1", "values": [{"measurement": "GI50", "setting": "DU-145", "value": "> 100 µM (inactive)"}, {"measurement": "GI50", "setting": "MCF7", "value": "36.7 µM (inactive)"}, {"measurement": "GI50", "setting": "SR", "value": "26.7 µM (inactive)"}, {"measurement": "GI50", "setting": "T47D", "value": "38.7 µM (inactive)"}]}
{"smiles": "N#C/N=[N+](\\[O-])c1ccc(C(=O)O)cc1", "values": [{"measurement": "GI50", "setting": "BT-549", "value": "16.4 µM (inactive)"}, {"measurement": "GI50", "setting": "MCF7", "value": "19.2 µM (inactive)"}]}
{"smiles": "COc1cccc(/C=C2\\C(=O)N(C(=O)Cc3ccccc3)N=C2C)c1", "values": [{"measurement": "GI50", "setting": "HOP-18", "value": "12.4 µM (inactive)"}, {"measurement": "GI50", "setting": "M19-MEL", "value": "> 100 µM (inactive)"}, {"measurement": "GI50", "setting": "SR", "value": "> 100 µM (inactive)"}]}
